The source of these data is PubChem BioAssay (NCI).

Values joined by “and” are separate entries in the source; they are usually repeats but may differ in a detail not shown here. Identical values can stand only once.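 96-well plates; 48 h exposure; 5 concentrations. Endpoints by linear interpolation between flanking doses. Not reached: highest tested concentration assigned. Abbreviation: GI50, concentration required for 50% inhibition of growth. TGI is the concentration that stops growth completely.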

Experiment in all cases: NCI tumour cell line growth inhibition, 48 h
Experiment [1] concerns ACHN renal.
The subject of experiment [2] is CAKI-1 renal.
The test system of experiment [3] is CCRF-CEM leukemia.
The test system of experiment [4] is HOP-62 NSCLC.
Experiment [5] deals with K-562 leukemia.
In experiment [6] the test system is M14 melanoma.
Experiment [7] has as its system SF-539 CNS.
Experiment [8] has as its system UO-31 renal.

On to `COC1CCC2C(NS(=O)(=O)c3ccc(C)cc3)CCCC2O1` (configuration not stated) (tested in a mixture with another compound), for which the TGI in experiment [1] is > 34.5 µM; in experiment [2], > 34.5 µM; in experiment [3] it was > 34.5 µM; in experiment [4], > 34.5 µM; in experiment [5] it was 27.8 µM; in experiment [6] it was > 34.5 µM. The TGI in experiment [7] and in experiment [8] was > 34.5 µM throughout.
`C/C(CC(=O)CCC(=O)Nc1cccc(C(F)(F)F)c1)=N\NC(=O)NN`: the TGI in experiment [1], in experiment [2], in experiment [3], in experiment [4], in experiment [5] and in experiment [6] was > 100 µM in each case. In addition, the TGI in experiment [7] and in experiment [8] was > 100 µM in each case.
Regarding `CCOC(=O)CN1C(=O)c2cccc3cc([N+](=O)[O-])cc(c23)C1=O`, the TGI in experiment [1] is 21.7 µM; in experiment [3], 1.5 µM; in experiment [4], 32.3 µM; in experiment [5] it was 2.03 µM; in experiment [6], 11.5 µM; in experiment [7], 16 µM. This compound also gave a TGI in experiment [8] of 27 µM.
Take `Cc1cc(C)nc(NS(=O)(=O)c2ccc(NC(=O)c3ccc(Cl)c4c(Nc5ccc(S(=O)(=O)Nc6nc(C)cc(C)n6)cc5)c5ccccc5nc34)cc2)n1`: the TGI in experiment [1] is > 100 µM; in experiment [2] it was > 100 µM; in experiment [3] it was > 100 µM; in experiment [4], > 100 µM; in experiment [5], 99 µM; in experiment [6], 6.95 µM. This compound had a TGI in experiment [8] of 57.4 µM.
Consider `O=CN/C=C/c1cc(O)ccc1O`, for which the TGI was 28.9 µM in experiment [1]; 25.8 µM in experiment [2]; 23.9 µM in experiment [3]; > 100 µM in experiment [4]; 52.9 µM in experiment [5]; 32.8 µM in experiment [6]. Besides, the TGI in experiment [7] was 43.9 µM; in experiment [8] it was 46.3 µM.
In the case of `O=C1/C(=C/c2ccccc2)CN(C(=O)C(Cl)(Cl)Cl)C/C1=C\c1ccccc1`, the TGI in experiment [1] worked out at 4.62 µM; in experiment [3], 3.86 µM; in experiment [5] it was 3.26 µM; in experiment [6] it was 2.62 µM; in experiment [7], 9.91 µM; in experiment [8], 7.03 µM.
With `N#CC(c1ccc(Cl)cc1)c1cccc(C(C#N)c2ccc(Cl)cc2)n1` (configuration not stated), the TGI in experiment [1], in experiment [2], in experiment [3], in experiment [4], in experiment [5] and in experiment [6] was > 100 µM in each case. In experiment [8], this compound returned a TGI of 42.3 µM.
For `CN(C)C(=N)c1ccccc1`, the TGI in experiment [2], in experiment [4], in experiment [6], in experiment [7] and in experiment [8] was > 100 µM in each case.
Turning to `O=C(O)c1ccccc1[Se][Se]c1ccccc1C(=O)O`, the TGI in experiment [1] is > 100 µM; in experiment [2], > 100 µM; in experiment [3] it was > 100 µM; in experiment [4], 73.5 µM; in experiment [5], > 100 µM; in experiment [6], > 100 µM. The values for the TGI in experiment [7] and in experiment [8] were > 100 µM and 28.3 µM, respectively.
For `O=C(COc1ccc(Br)cc1Br)N1N=C(c2ccc([N+](=O)[O-])o2)CC1(O)c1ccccc1` (configuration not stated), the TGI in experiment [1] is > 100 µM; in experiment [2], 65.3 µM; in experiment [3], 14.8 µM; in experiment [4] it was 27.5 µM; in experiment [5] it was > 100 µM; in experiment [6] it was 21.9 µM. The compound also yielded a TGI in experiment [8] of 21.3 µM.
For the compound `COC(=O)[C@@H]1[C@H](O)[C@H](C)[C@H](O)[C@@](C)(O)/C=C\C=C(C)C(=O)Nc2c(C)c(OC(C)=O)c3c(c2O)C(=O)C(C)=C2OCOC(=C23)C(C)=C[C@@](C)(O)[C@H](O)[C@@H](C)[C@H]1OC(C)=O`, the GI50 was > 66.9 µM in experiment [1]; > 66.9 µM in experiment [2]; 12.8 µM in experiment [3]; 32.4 µM in experiment [5]; > 100 µM and 21 µM and 29.1 µM in experiment [6]; > 66.9 µM in experiment [7]. The TGI in experiment [1] is > 100 µM; in experiment [2] it was > 100 µM; in experiment [3], > 100 µM and 66.9 µM and 47.6 µM; in experiment [4] it was > 100 µM and 66.9 µM; in experiment [5] it was > 100 µM and 66.9 µM; in experiment [6] it was > 100 µM and 66.9 µM and 86.5 µM. Further, the TGI in experiment [7] was > 100 µM; in experiment [8], > 100 µM and 66.9 µM.
As for `O=C(O)CCc1coc2ccc(O)cc12`, the TGI in experiment [1], in experiment [2], in experiment [3], in experiment [4], in experiment [5] and in experiment [6] was > 100 µM throughout. Moreover, in experiment [7], the TGI is > 100 µM.
As to `COc1ccc2c3c1C(=O)CCCC3CO2` (configuration not stated), the TGI in experiment [1], in experiment [3], in experiment [4], in experiment [5], in experiment [6] and in experiment [7] was > 100 µM in each case. Further, the TGI in experiment [8] is > 100 µM.
Take `C=C1C(=O)C23CC1CCC2C12CO[C@@H]4OCC(C)(CC[C@@H]1OC3=O)C42` (some centres not stated): the TGI is 9.4 µM in experiment [1]; 5.33 µM in experiment [2]; 12.1 µM in experiment [3]; 43.4 µM in experiment [4]; > 100 µM in experiment [5]; 2.88 µM in experiment [6]. Besides, the TGI in experiment [7] is 14.8 µM; in experiment [8] it was 23.6 µM.
On to `COc1ccccc1C12OC(=O)C1(C)Oc1ccccc1C2=O` (configuration not stated), for which the TGI in experiment [1], in experiment [3], in experiment [4], in experiment [5], in experiment [6] and in experiment [7] was > 100 µM each time. Further, the TGI in experiment [8] was > 100 µM.
As for `O=S1(=O)c2ccccc2NC(c2ccc3ccccc3c2)CC1c1ccccc1F` (configuration not stated), the TGI in experiment [1], in experiment [2], in experiment [3], in experiment [4], in experiment [5] and in experiment [6] was > 100 µM each time. Also, the TGI in experiment [7] and in experiment [8] was > 100 µM each time.
